Results taken from the NIST ThermoML archive (doi:10.1016/j.jct.2011.07.018).
Numbers after ± are expanded uncertainties.

How the values were obtained:
[1] = excess molar enthalpy (molar enthalpy of mixing); xn = mol fraction of the nth substance listed; settings: 298.15 K, 101 kPa, Liquid, isothermal titration calorimeter
[2] = 298.15 K; 101.33 kPa; Liquid; Vibrating tube method

## CCCCCC(=O)O [hexanoic acid] + C[S+](C)[O-]
[1]; x2 = 0.042
  excess molar enthalpy: -0.0478 ± 0.000717 kcal/mol
[1]; x2 = 0.081
  excess molar enthalpy: -0.0963 ± 0.00143 kcal/mol
[1]; x2 = 0.117
  excess molar enthalpy: -0.144 ± 0.00191 kcal/mol
[1]; x2 = 0.15
  excess molar enthalpy: -0.189 ± 0.00239 kcal/mol
[1]; x2 = 0.181
  excess molar enthalpy: -0.233 ± 0.00287 kcal/mol
[1]; x2 = 0.209
  excess molar enthalpy: -0.275 ± 0.00359 kcal/mol
[1]; x2 = 0.241
  excess molar enthalpy: -0.322 ± 0.00406 kcal/mol
[1]; x2 = 0.271
  excess molar enthalpy: -0.365 ± 0.00454 kcal/mol
[1]; x2 = 0.298
  excess molar enthalpy: -0.405 ± 0.00502 kcal/mol
[1]; x2 = 0.323
  excess molar enthalpy: -0.441 ± 0.0055 kcal/mol
[1]; x2 = 0.346
  excess molar enthalpy: -0.473 ± 0.00598 kcal/mol
[1]; x2 = 0.369
  excess molar enthalpy: -0.502 ± 0.00621 kcal/mol
[1]; x2 = 0.38
  excess molar enthalpy: -0.514 ± 0.00645 kcal/mol
[1]; x2 = 0.388
  excess molar enthalpy: -0.523 ± 0.00645 kcal/mol
[1]; x2 = 0.397
  excess molar enthalpy: -0.533 ± 0.00669 kcal/mol
[1]; x2 = 0.406
  excess molar enthalpy: -0.541 ± 0.00669 kcal/mol
[1]; x2 = 0.415
  excess molar enthalpy: -0.55 ± 0.00693 kcal/mol
[1]; x2 = 0.425
  excess molar enthalpy: -0.557 ± 0.00693 kcal/mol
[1]; x2 = 0.436
  excess molar enthalpy: -0.565 ± 0.00693 kcal/mol
[1]; x2 = 0.447
  excess molar enthalpy: -0.571 ± 0.00717 kcal/mol
[1]; x2 = 0.457
  excess molar enthalpy: -0.575 ± 0.00717 kcal/mol
[1]; x2 = 0.467
  excess molar enthalpy: -0.579 ± 0.00717 kcal/mol
[1]; x2 = 0.477
  excess molar enthalpy: -0.582 ± 0.00717 kcal/mol
[1]; x2 = 0.488
  excess molar enthalpy: -0.583 ± 0.00717 kcal/mol
[1]; x2 = 0.498
  excess molar enthalpy: -0.582 ± 0.00717 kcal/mol
[1]; x2 = 0.508
  excess molar enthalpy: -0.58 ± 0.00717 kcal/mol
[1]; x2 = 0.519
  excess molar enthalpy: -0.577 ± 0.00717 kcal/mol
[1]; x2 = 0.53
  excess molar enthalpy: -0.572 ± 0.00717 kcal/mol
[1]; x2 = 0.541
  excess molar enthalpy: -0.564 ± 0.00693 kcal/mol
[1]; x2 = 0.553
  excess molar enthalpy: -0.556 ± 0.00693 kcal/mol
[1]; x2 = 0.563
  excess molar enthalpy: -0.547 ± 0.00669 kcal/mol
[1]; x2 = 0.574
  excess molar enthalpy: -0.537 ± 0.00669 kcal/mol
[1]; x2 = 0.585
  excess molar enthalpy: -0.525 ± 0.00645 kcal/mol
[1]; x2 = 0.596
  excess molar enthalpy: -0.512 ± 0.00645 kcal/mol
[1]; x2 = 0.608
  excess molar enthalpy: -0.497 ± 0.00621 kcal/mol
[1]; x2 = 0.62
  excess molar enthalpy: -0.482 ± 0.00598 kcal/mol
[1]; x2 = 0.631
  excess molar enthalpy: -0.468 ± 0.00574 kcal/mol
[1]; x2 = 0.642
  excess molar enthalpy: -0.452 ± 0.00574 kcal/mol
[1]; x2 = 0.653
  excess molar enthalpy: -0.436 ± 0.0055 kcal/mol
[1]; x2 = 0.665
  excess molar enthalpy: -0.419 ± 0.00526 kcal/mol
[1]; x2 = 0.677
  excess molar enthalpy: -0.401 ± 0.00502 kcal/mol
[1]; x2 = 0.69
  excess molar enthalpy: -0.382 ± 0.00478 kcal/mol
[1]; x2 = 0.701
  excess molar enthalpy: -0.366 ± 0.00454 kcal/mol
[1]; x2 = 0.712
  excess molar enthalpy: -0.349 ± 0.0043 kcal/mol
[1]; x2 = 0.724
  excess molar enthalpy: -0.332 ± 0.00406 kcal/mol
[1]; x2 = 0.736
  excess molar enthalpy: -0.314 ± 0.00406 kcal/mol
[1]; x2 = 0.748
  excess molar enthalpy: -0.296 ± 0.00382 kcal/mol
[1]; x2 = 0.761
  excess molar enthalpy: -0.277 ± 0.00359 kcal/mol
[1]; x2 = 0.772
  excess molar enthalpy: -0.261 ± 0.00335 kcal/mol
[1]; x2 = 0.784
  excess molar enthalpy: -0.244 ± 0.00311 kcal/mol
[1]; x2 = 0.796
  excess molar enthalpy: -0.227 ± 0.00287 kcal/mol
[1]; x2 = 0.808
  excess molar enthalpy: -0.209 ± 0.00263 kcal/mol
[1]; x2 = 0.821
  excess molar enthalpy: -0.192 ± 0.00239 kcal/mol
[1]; x2 = 0.834
  excess molar enthalpy: -0.174 ± 0.00215 kcal/mol
[1]; x2 = 0.846
  excess molar enthalpy: -0.159 ± 0.00215 kcal/mol
[1]; x2 = 0.858
  excess molar enthalpy: -0.143 ± 0.00191 kcal/mol
[1]; x2 = 0.87
  excess molar enthalpy: -0.128 ± 0.00167 kcal/mol
[1]; x2 = 0.883
  excess molar enthalpy: -0.112 ± 0.00143 kcal/mol
[1]; x2 = 0.896
  excess molar enthalpy: -0.097 ± 0.00143 kcal/mol
[1]; x2 = 0.91
  excess molar enthalpy: -0.0844 ± 0.0012 kcal/mol
[1]; x2 = 0.922
  excess molar enthalpy: -0.0691 ± 0.000956 kcal/mol
[1]; x2 = 0.934
  excess molar enthalpy: -0.0564 ± 0.000956 kcal/mol
[1]; x2 = 0.943
  excess molar enthalpy: -0.0442 ± 0.000717 kcal/mol
[1]; x2 = 0.959
  excess molar enthalpy: -0.0323 ± 0.000478 kcal/mol
[1]; x2 = 0.973
  excess molar enthalpy: -0.0208 ± 0.000478 kcal/mol
[1]; x2 = 0.986
  excess molar enthalpy: -0.01 ± 0.000239 kcal/mol

## CCCCCCCCO [octan-1-ol]
[2]
  mass density: 821.67 ± 0.65 kg/m3

## CCCCCCCC(=O)O [octanoic acid]
[2]
  mass density: 906.02 ± 0.73 kg/m3

## CCCCCCCC(=O)O [octanoic acid] + CCCCCCO
[1]; x2 = 0.038
  excess molar enthalpy: 0.0373 ± 0.000717 kcal/mol
[1]; x2 = 0.074
  excess molar enthalpy: 0.065 ± 0.000956 kcal/mol
[1]; x2 = 0.106
  excess molar enthalpy: 0.0868 ± 0.0012 kcal/mol
[1]; x2 = 0.137
  excess molar enthalpy: 0.105 ± 0.00143 kcal/mol
[1]; x2 = 0.167
  excess molar enthalpy: 0.12 ± 0.00167 kcal/mol
[1]; x2 = 0.18
  excess molar enthalpy: 0.132 ± 0.00167 kcal/mol
[1]; x2 = 0.186
  excess molar enthalpy: 0.135 ± 0.00167 kcal/mol
[1]; x2 = 0.193
  excess molar enthalpy: 0.138 ± 0.00191 kcal/mol
[1]; x2 = 0.201
  excess molar enthalpy: 0.141 ± 0.00191 kcal/mol
[1]; x2 = 0.209
  excess molar enthalpy: 0.144 ± 0.00191 kcal/mol
[1]; x2 = 0.218
  excess molar enthalpy: 0.147 ± 0.00191 kcal/mol
[1]; x2 = 0.228
  excess molar enthalpy: 0.151 ± 0.00191 kcal/mol
[1]; x2 = 0.239
  excess molar enthalpy: 0.154 ± 0.00191 kcal/mol
[1]; x2 = 0.251
  excess molar enthalpy: 0.157 ± 0.00191 kcal/mol
[1]; x2 = 0.261
  excess molar enthalpy: 0.16 ± 0.00215 kcal/mol
[1]; x2 = 0.273
  excess molar enthalpy: 0.162 ± 0.00215 kcal/mol
[1]; x2 = 0.286
  excess molar enthalpy: 0.165 ± 0.00215 kcal/mol
[1]; x2 = 0.3
  excess molar enthalpy: 0.167 ± 0.00215 kcal/mol
[1]; x2 = 0.31
  excess molar enthalpy: 0.169 ± 0.00215 kcal/mol
[1]; x2 = 0.322
  excess molar enthalpy: 0.17 ± 0.00215 kcal/mol
[1]; x2 = 0.334
  excess molar enthalpy: 0.172 ± 0.00215 kcal/mol
[1]; x2 = 0.347
  excess molar enthalpy: 0.173 ± 0.00215 kcal/mol
[1]; x2 = 0.361
  excess molar enthalpy: 0.174 ± 0.00215 kcal/mol
[1]; x2 = 0.377
  excess molar enthalpy: 0.175 ± 0.00215 kcal/mol
[1]; x2 = 0.394
  excess molar enthalpy: 0.176 ± 0.00215 kcal/mol
[1]; x2 = 0.407
  excess molar enthalpy: 0.176 ± 0.00215 kcal/mol
[1]; x2 = 0.422
  excess molar enthalpy: 0.175 ± 0.00215 kcal/mol
[1]; x2 = 0.437
  excess molar enthalpy: 0.175 ± 0.00215 kcal/mol
[1]; x2 = 0.454
  excess molar enthalpy: 0.174 ± 0.00215 kcal/mol
[1]; x2 = 0.472
  excess molar enthalpy: 0.173 ± 0.00215 kcal/mol
[1]; x2 = 0.492
  excess molar enthalpy: 0.171 ± 0.00215 kcal/mol
[1]; x2 = 0.508
  excess molar enthalpy: 0.168 ± 0.00215 kcal/mol
[1]; x2 = 0.526
  excess molar enthalpy: 0.166 ± 0.00215 kcal/mol
[1]; x2 = 0.544
  excess molar enthalpy: 0.163 ± 0.00215 kcal/mol
[1]; x2 = 0.564
  excess molar enthalpy: 0.158 ± 0.00215 kcal/mol
[1]; x2 = 0.586
  excess molar enthalpy: 0.154 ± 0.00191 kcal/mol
[1]; x2 = 0.607
  excess molar enthalpy: 0.148 ± 0.00191 kcal/mol
[1]; x2 = 0.629
  excess molar enthalpy: 0.143 ± 0.00191 kcal/mol
[1]; x2 = 0.65
  excess molar enthalpy: 0.137 ± 0.00167 kcal/mol
[1]; x2 = 0.672
  excess molar enthalpy: 0.13 ± 0.00167 kcal/mol
[1]; x2 = 0.696
  excess molar enthalpy: 0.123 ± 0.00167 kcal/mol
[1]; x2 = 0.722
  excess molar enthalpy: 0.114 ± 0.00143 kcal/mol
[1]; x2 = 0.749
  excess molar enthalpy: 0.105 ± 0.00143 kcal/mol
[1]; x2 = 0.773
  excess molar enthalpy: 0.0966 ± 0.0012 kcal/mol
[1]; x2 = 0.798
  excess molar enthalpy: 0.0872 ± 0.0012 kcal/mol
[1]; x2 = 0.825
  excess molar enthalpy: 0.0765 ± 0.000956 kcal/mol
[1]; x2 = 0.853
  excess molar enthalpy: 0.0645 ± 0.000956 kcal/mol
[1]; x2 = 0.884
  excess molar enthalpy: 0.0528 ± 0.000717 kcal/mol
[1]; x2 = 0.91
  excess molar enthalpy: 0.0409 ± 0.000717 kcal/mol
[1]; x2 = 0.938
  excess molar enthalpy: 0.0282 ± 0.000478 kcal/mol
[1]; x2 = 0.968
  excess molar enthalpy: 0.0146 ± 0.000239 kcal/mol
